# Laboratory results reported in patent US9867832B2, “Pharmaceutical composition for inhibiting immune response through inducing differentiation into regulator T cells and promoting proliferation of regulator T cells” (LG CHEM, LTD., priority 2013, dated 2018).
# Experiments:
# GVHD mouse model = assay: Allogeneic immune response (GVHD) mouse model: survival, body weight, GVHD clinical score, large intestine histology; format: in vivo
# Procedure: 6-8 week-old C57BL/6 (H-2kb) mouse and BALB/c (H-2kd) mouse which have different MHC class from each other were purchased from OrientBio Co., Ltd. After passing the regulation of the management committee of the Department of Laboratory Animal, The Catholic University of Korea, the mice were used under its care. A recipient mouse BALB/c (H-2kd) was irradiated with systemic radiation at 800 cGy. Within 24 hours, bone marrow 5×10^6 cells and spleen 5×10^6 cells isolated from a donor mouse C57BL/6 […] were transplanted into the allogeneic recipient mouse intravenously to induce a graft-versus-host rejection reaction model. The bone marrow-transplanted mouse was observed and evaluation was made of the following: weight, pose, activity, hair condition and skin density with evaluation criteria on the total ten-point scale, two points per each item (Table 1).
# 4 μm of serial sections were obtained from the paraffin-embedded tissue, treated with xylene three times to remove paraffin, and then hydrated stepwise in 95%, 90% and 70% ethanol. After removing endogenous peroxidase in 0.5% hydrogen peroxide, the specimen was treated with normal goat serum for 30 minutes and then reacted with primary antibody which was diluted with 3% bovine serum albumin (BSA) in PBS according to the manufacturer's instruction for 1 hour. After primary antibody reaction to the expressed proteins directed to genes showing the difference of expression in the above study, the specimen was washed with Tris-buffered saline (TBS) three times, reacted with 5 μg/ml biotinylated anti-mouse/anti-rabbit IgG diluted in 3% BSA for 30 minutes and washed with TBS three times. The specimen was kept in 3 μg/ml horseradish peroxidase streptoavidin for 30 minutes, color development was carried out by the use of DAB and hydrogen peroxide, and counter staining was carried out with Meyer's hematoxylin or 1% methyl green. […]
# [1] = test system: CD4+CD25+Foxp3+ regulatory T cells; assay: Increase of regulatory T cells in in vivo GVHD mouse model (Example 10); conditions: intravenous, four times a week for two weeks, spleen flow cytometry
# Procedure: 6-8 week-old C57BL/6 (H-2kb) mouse and BALB/c (H-2kd) mouse which have different MHC class from each other were used. A recipient mouse BALB/c (H-2kd) was irradiated with systemic radiation at 8 Gy. Within 24 hours, bone marrow 5×10^6 cells and spleen 5×10^6 cells isolated from a donor mouse C57BL/6 […] were transplanted into the recipient mouse intravenously to induce graft-versus-host rejection reaction model (GVHD model). Compound A was intravenously injected into the GVHD model four times a week for two weeks. Mice were sacrificed, single-cell isolation was carried out, and the function of immune regulation in the spleen was investigated via flow cytometry. As a result, it was confirmed that in the group in which Compound A was administered CD4^+CD25^+Foxp3^+ regulatory T cells were increased.
# [2] = test system: CD4+ T cells isolated from the spleen cells of C57BL/6; assay: Differentiation into regulatory T cells in allogeneic immune cells in vitro; format: cell-based, mouse; conditions: C57BL/6 CD4+ T cells with irradiated BALBc APCs; 5 days; various concentrations
# Procedure: 1×10^6 CD4^+ T cells isolated from the spleen cells of C57BL/6 and BALBc antigen-presenting cells (APCs) irradiated at 20 Gy were added to a 48-well plate and incubated at 37° C. for 5 days. The incubation was carried out under the condition that allogeneic immune response by antigen-presenting cells is induced to the spleen cells, and the treatment with Compound A at various concentrations before incubation was carried out for comparative analysis. The cells were harvested after 5-day incubation, and for flow cytometry anti-mouse CD4 PerCP, CD25 APC and FoxP3 PE fluorescence-labeled antibodies were added thereto and reacted at 4° C. for 30 minutes. After washing with PBS, the measurement was carried out with a flow cytometer (FACSCalibur™).
# [3] = test system: CD4+CD25+Foxp3+ regulatory T cells; assay: Flow cytometry of spleen cells of GVHD mice (regulatory T cells, CD4+IL-4, CD4+IFN-γ); format: in vivo; conditions: GVHD mouse spleen
# Procedure: Mice were divided into a GVHD group in which (tetrahydropyran-4-yl)-[2-phenyl-5-(1,1-dioxo-thiomorpholin-4-yl)methyl-1H-indol-7-yl]amine (LG Life Sciences Ltd., Daejeon, Korea, hereinafter referred to as “Compound A”) was treated as a test group and a GVHD group in which Compound A was not treated as a control group. The spleens of each group were isolated and single-cell isolation was then carried out. The expression of CD4+CD25+Foxp3+, which is the phenotype of regulatory T cell, and CD4+IFN-γ cells and CD4+IL-4 cells were analyzed by the use of fluorescent monoclonal antibodies and a flow cytometer.
# The present inventors found out that in GVHD mouse model, immune transplant rejection was decreased, the production of ROS and HMGB1, and cellular necrosis in tissues were suppressed by the compound of the present invention, so that they intended to observe the possibility of regulating immune response in immune disease animal model. Accordingly, mice of the test group in which the compound of the present invention was treated and the control group were sacrificed, their spleens were isolated, single-cell isolation was carried out, and the function of immune regulation was searched via flow cytometry. As a result, in the group in which the compound of the present invention was treated CD4+CD25+Foxp3+ immune regulatory cells (regulatory T cells) were increased 6 times or more, as compared with the control group. […] In GVHD model, after irradiation of high-dose radiation the transplanted T cells of the donor are activated and proliferated by antigen-presenting cells of the host to secrete IFN-γ which is known as a representative GVHD causing cytokine. […] Therefore, it can be known that the compound of the present invention can suppress immune response by suppressing the activation of the transplanted T cells.
# [4] = test system: reactive oxygen species (ROS); assay: Measurement of reactive oxygen species (ROS) in spleen cells of GVHD mice; format: in vivo; conditions: GVHD mouse spleen cells; 7th and 14th day; dose- and time-dependent; vs control group
# Procedure: Animals of each group were sacrificed, and their spleens were isolated. After single-cell isolation, the obtained cells were washed with phosphate-buffered saline (PBS) twice. The reaction with 3 μM carboxy-H2DCFDA reagent was carried out at 37° C. for 10 minutes. After washing with PBS, the analysis was carried out with a flow cytometer at 540 nm.
# Accordingly, the present inventors observed immune response by oxidative stress via GVHD mouse model.
# HMGB1 = assay: Real-time PCR of HMGB1 expression in spleen cells of GVHD mice; format: in vivo; conditions: GVHD mouse spleen cells, 7th and 14th day, time-dependent, vs control group
# Procedure: Total RNA was extracted from the cells by the use of TRIzol reagent. 1 μg of RNA was reacted with AMV reverse transcriptase and random hexamer at 45° C. for 1 hour to synthesize cDNA. Real-time PCR was carried out by the use of a mixture in which 1 μg of cDNA as a template, primer S, primer AS and distilled water were mixed, and SYBR Green. The PCR was carried out by the use of I-IMGB 1 (5′-GATGGGCAAAGGAGATCCTAAG-3′ and 5′-TCACTTTTTTGTCTCCCCTTTGGG-3′) with the condition of 35 cycles of at 95° C. for 15 seconds, at 60° C. for 10 seconds and at 72° C. for 30 seconds. Fluorescent data were measured by the use of Rad CFX96 Real-Time System (Bio-Rad Laboratories).
# It has been well known that the release of HMGB1 has a possibility of the function for regulating inflammation and immunity. Therefore, in this study the animals of the test group in which GVHD mouse model was treated with the compound of the present invention and the control model was sacrificed, RNA was extracted from spleen cells, and then cDNA was synthesized and a comparative study on the expression of HMGB1 was carried out by real-time PCR.
# [5] = test system: CD4+ T cells isolated from mouse spleen cells; assay: In vitro differentiation of CD4+ T cells into regulatory T cells (aCD3, aCD28, TGF-beta); format: cell-based
# Procedure: Experimentation for investigating the effect of the compound of the present invention on the differentiation of lymphocyte Th cells was carried out. 5×10^5 CD4+ T cells isolated from mouse spleen cells were dispensed into a 24-well plate coated with 1 μg/ml of anti-CD3 (aCD3), and then treated with 1 μg/ml of […] (aCD28) and 5 ng/ml of TGF-beta to induce the differentiation into regulatory T cells for 3 days. Before the differentiation into regulatory T cells, the compound (tetrahydropyran-4-yl)-[2-phenyl-5-(1,1-dioxo-thiomorpholin-4-yl)methyl-1H-indol-7-yl]amine (hereinafter referred to as “Compound A”) (LG Life Sciences Ltd., Daejeon, Korea) of the present invention was treated with the concentration of 40 μM and 80 μM. For flow cytometry, anti-mouse CD4 PerCP, CD25 APC and FoxP3 PE fluorescence-labeled antibodies were added thereto and reacted at 4° C. for 30 minutes. After washing with PBS, the measurement was carried out with a flow cytometer (FACSCalibur™)
# In the course that 5×10^5 CD4^+ T cells isolated from mouse spleen cells were dispensed into a 24-well plate coated with 1 μg/ml of anti-CD3 (aCD3), and then treated with 1 μg/ml of […] (aCD28) and 5 ng/ml of TGF-beta to induce the differentiation into regulatory T cells for 3 days, the groups were divided into (1) 40 μM or 80 μM of Compound A single-treated group, (2) 0.1 μM of retinoic acid (RA) single-treated group, (3) 1 μM of retinal treated group, (4) 0.1 μM of RA and 40 μM or 80 μM of Compound A treated group, and (5) 1 μM of retinal and 40 μM or 80 μM of Compound A treated group, and the effect on the differentiation into regulatory T cells of each group was then compared.
smiles,measurement,setting,value
"O=S1(=O)CCN(Cc2cc(NC3CCOCC3)c3[nH]c(-c4ccccc4)cc3c2)CC1 [Compound A, (tetrahydropyran-4-yl)-[2-phenyl-5-(1,1-dioxo-thiomorpholin-4-yl)methyl-1H-indol-7-yl]amine]",survival rate,"GVHD mouse model; 0.3 or 1 mg/kg (FIG. 2), compared with non-treated group",considerably increased
same,body weight,GVHD mouse model; FIGS. 1 and 2,significant results
same,graft-versus-host reaction (GVHD clinical score),GVHD mouse model; FIGS. 1 and 2,significant results
same,CD4+CD25+Foxp3+ regulatory T cells,[1],increased
same,regulatory T cells,[2],increased according to the concentration of Compound A
same,increase of CD4+CD25+Foxp3+ immune regulatory cells (regulatory T cells),[3]; compared with control group,≥ 6 times
same,CD4+IFN-γ,[3]; vs control group,decreased by more than half
same,CD4+IL-4 cells,[3]; vs control group,increased
same,generation ratio of reactive oxygen species in cells,[4],significantly suppressed
same,release (expression) of HMGB1,HMGB1,significantly suppressed
same,differentiation into regulatory T cells,"[5]; CD4+ T cells with aCD3, aCD28, TGF-beta, 40 μM and 80 μM",increased in a Compound A concentration-dependent manner
same,expression of Foxp3+,"[5]; CD4+ T cells with aCD3, aCD28, TGF-beta, 40 μM and 80 μM, 3 days, vs control without Compound A",nearly doubled
same,expression of Foxp3+ (alone or in combination),"[5]; aCD3, aCD28, TGF-beta, Compound A 40 or 80 μM, RA 0.1 μM, retinal 1 μM",increased to a similar extent to the case of treating retinal or RA
